According to ChEMBL document CHEMBL1201862, “PubChem BioAssay data set” (2004):
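Where inhibition never reached the appropriate level, the endpoint shown equals the highest concentration tested. Otherwise, values were interpolated linearly from a five-concentration, 48-hour dose response in 96-well plates. GI50 marks 50% less growth.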 Activity calls are given as the source filed them. No stated cut-off is given here; in the data, active = GI50 up to about 1.1 µM and inactive = higher.

Legend:
Assay in all cases: DTP human tumour cell line panel, 48 h
[1] = test system: SK-MEL-5
[2] = test system: Hs-578T
[3] = test system: OVCAR-4
[4] = test system: HL-60
[5] = test system: HCC 2998
[6] = test system: COLO 205
[7] = test system: NCI-H460
[8] = test system: 786-0
[9] = test system: NCI-H522
[10] = test system: EKVX
[11] = test system: U-251
[12] = test system: HOP-62
[13] = test system: A498
[14] = test system: SK-OV-3
[15] = test system: DU-145
[16] = test system: RPMI-8226
[17] = test system: PC-3
[18] = test system: BT-549
[19] = test system: NCI-H226

Structure (SMILES) | GI50 [1] | GI50 [2] | GI50 [3] | GI50 [4] | GI50 [5] | GI50 [6] | GI50 [7] | GI50 [8] | GI50 [9] | GI50 [10] | GI50 [11] | GI50 [12] | GI50 [13] | GI50 [14] | GI50 [15] | GI50 [16] | GI50 [17] | GI50 [18] | GI50 [19]
O=c1c(-c2ccc3c(c2)OCO3)coc2c3c(ccc12)OCO3 | > 100 µM (inactive) | 22.3 µM (inactive) | 24.8 µM (inactive) | > 100 µM (inactive) | 58.1 µM (inactive) | > 100 µM (inactive) | 17.2 µM (inactive) | 19.4 µM (inactive) | 18.3 µM (inactive) | 38 µM (inactive) | 37.6 µM (inactive) | 20.1 µM (inactive) | 29 µM (inactive) | 18.1 µM (inactive) | 41.4 µM (inactive) | > 100 µM (inactive) | 75.9 µM (inactive) | 15.6 µM (inactive) | –
COC(=O)C12C3C4(C(=O)OC)C1C1(C(=O)OC)C2C3(C(=O)OC)C41C(=O)N(C(C)C)C(C)C (stereo not given) | > 100 µM (inactive) | > 100 µM (inactive) | > 100 µM (inactive) | > 100 µM (inactive) | > 100 µM (inactive) | > 100 µM (inactive) | > 100 µM (inactive) | > 100 µM (inactive) | > 100 µM (inactive) | > 100 µM (inactive) | > 100 µM (inactive) | > 100 µM (inactive) | > 100 µM (inactive) | – | > 100 µM (inactive) | – | > 100 µM (inactive) | > 100 µM (inactive) | –
O=C(Nc1ccccc1C(=O)NCc1ccccc1)/C(=C/c1ccccc1O)NC(=O)c1ccccc1 | > 100 µM (inactive) | 69 µM (inactive) | – | 55.5 µM (inactive) | > 100 µM (inactive) | > 100 µM (inactive) | > 100 µM (inactive) | 66.4 µM (inactive) | > 100 µM (inactive) | > 100 µM (inactive) | 52.5 µM (inactive) | 27.1 µM (inactive) | > 100 µM (inactive) | 48.9 µM (inactive) | > 100 µM (inactive) | > 100 µM (inactive) | > 100 µM (inactive) | – | > 100 µM (inactive)
C=C[C@@]1(C)CC(=O)[C@]2(O)[C@@]3(C)[C@@H](OC(C)=O)CCC(C)(C)[C@@H]3[C@H](O)[C@H](OC(C)=O)[C@@]2(C)O1 | – | – | > 100 µM (inactive) | – | > 100 µM (inactive) | – | > 100 µM (inactive) | 83.6 µM (inactive) | – | > 100 µM (inactive) | > 100 µM (inactive) | > 100 µM (inactive) | > 100 µM (inactive) | > 100 µM (inactive) | > 100 µM (inactive) | – | > 100 µM (inactive) | > 100 µM (inactive) | > 100 µM (inactive)
Nc1nc(N)c2c(n1)CCC(S(=O)(=O)c1ccc3ccccc3c1)C2 (stereo not given) | 2.55 µM (inactive) | – | – | 13.5 µM (inactive) | 13.6 µM (inactive) | 8.38 µM (inactive) | 0.891 µM (active) | 23.1 µM (inactive) | – | 31.8 µM (inactive) | 2.45 µM (inactive) | 9.51 µM (inactive) | 24.9 µM (inactive) | 33.3 µM (inactive) | 9.59 µM (inactive) | 12.5 µM (inactive) | 17.6 µM (inactive) | 6.65 µM (inactive) | 39.3 µM (inactive)
NS(=O)(=O)c1ccc(-c2ccc([As](=O)(O)O)cc2)cc1 | > 100 µM (inactive) | > 100 µM (inactive) | > 100 µM (inactive) | > 100 µM (inactive) | – | > 100 µM (inactive) | > 100 µM (inactive) | > 100 µM (inactive) | > 100 µM (inactive) | > 100 µM (inactive) | > 100 µM (inactive) | 78.3 µM (inactive) | – | > 100 µM (inactive) | > 100 µM (inactive) | > 100 µM (inactive) | > 100 µM (inactive) | > 100 µM (inactive) | > 100 µM (inactive)
Nc1cc2ncnn2c(SCC(=O)N/N=C/C(Br)=C\c2ccccc2)n1 | 13.4 µM (inactive) | 23.1 µM (inactive) | – | 11.9 µM (inactive) | 19.9 µM (inactive) | 19.1 µM (inactive) | 17.3 µM (inactive) | 15.1 µM (inactive) | 10.6 µM (inactive) | 22.5 µM (inactive) | 5.24 µM (inactive) | 33.6 µM (inactive) | – | – | > 10 µM (inactive) | 10.6 µM (inactive) | 12.6 µM (inactive) | 17.3 µM (inactive) | 20 µM (inactive)
COc1cc([C@@H]2c3cc4c(cc3[C@H](OC3OC5COC(C(C)C)OC5C(O)C3O)C3COC(=O)[C@@H]32)OCO4)cc(OC)c1O (stereo not given in full) | 7.33 µM (inactive) | 9.71 µM (inactive) | 15.1 µM (inactive) | 1.99 µM (inactive) | – | 6.82 µM (inactive) | 2.04 µM (inactive) | 10 µM (inactive) | 14 µM (inactive) | 17.6 µM (inactive) | 2.53 µM (inactive) | 11.7 µM (inactive) | 10.7 µM (inactive) | 17.3 µM (inactive) | – | 5.2 µM (inactive) | 4.08 µM (inactive) | 3.42 µM (inactive) | 5.26 µM (inactive)
